Activity calls are given as the source filed them. The rule behind the calls is not given here.
What was measured:
[1] = test system: Jurkat; assay: Induction of DNA damage in human Jurkat cells assessed as tail DNA at 0.5 uM incubated for 24 hrs by alkaline Comet assay; assay type: functional
[2] = test system: Salmon testes DNA; assay: Displacement of methyl green from salmon sperm DNA at 10 uM measured after 2 hrs by fluorescence plate reader method relative to control; assay type: nucleic-acid assay; settings: Salmo salar
[3] = test system: Lymphocyte; assay: Induction of DNA damage in mitogen activated human peripheral blood lymphocytes assessed as olive tail moment at 0.5 uM incubated for 24 hrs by alkaline Comet assay; assay type: toxicity, cell-based
[4] = test system: A549; assay: Anticancer activity against human A549 cells assessed as cell growth inhibition incubated for 72 hrs by MTT assay; assay type: functional
[5] = test system: Jurkat; assay: Induction of morphological changes in human Jurkat cells assessed as plasma membrane blebbing incubated for 24 hrs by Hoechst 33258 and propidium iodide staining based fluorescence microscopy; assay type: functional, cell-based
[6] = test system: HCT-116; assay: Induction of DNA damage in human HCT-116 cell lysate assessed as tail DNA at 0.5 uM incubated for 2 hrs in dark by Comet assay; assay type: functional
[7] = test system: Jurkat; assay: Induction of apoptosis in human Jurkat cells assessed as increase in Bax level at 0.5 uM for 24 hrs by Western blot analysis; assay type: functional, cell-based
[8] = test system: Jurkat; assay: Induction of apoptosis in human Jurkat cells assessed as decrease in Bcl-2 level at 0.5 uM for 24 hrs by Western blot analysis; assay type: functional, cell-based
[9] = test system: HCT-116; assay: Anticancer activity against human HCT-116 cells assessed as cell growth inhibition incubated for 72 hrs by MTT assay; assay type: functional
[10] = test system: Jurkat; assay: Induction of morphological changes in human Jurkat cells assessed as chromatin condensation incubated for 24 hrs by Hoechst 33258 and propidium iodide staining based fluorescence microscopy; assay type: functional, cell-based
[11] = test system: U-251; assay: Anticancer activity against human U-251 cells assessed as cell growth inhibition incubated for 72 hrs by MTT assay; assay type: functional
[12] = Anticancer activity against human HCT116-p53-null cells assessed as cell growth inhibition incubated for 72 hrs by MTT assay; assay type: functional
[13] = test system: Salmon testes DNA; assay: Binding affinity to double stranded salmon sperm DNA assessed as increase in DNA oxidation level by measuring net change in absorbance at 10 uM incubated for 1 hr by UV based spectroscopic method; assay type: nucleic-acid assay; settings: Salmo salar
[14] = test system: KB 3-1; assay: Anticancer activity against human KB 3-1 cells assessed as cell growth inhibition incubated for 72 hrs by MTT assay; assay type: functional
[15] = test system: Jurkat; assay: Induction of apoptosis in human Jurkat cells assessed as decrease in Endo-G protein level at 0.5 uM for 24 hrs by Western blot analysis; assay type: functional, cell-based
[16] = test system: SK-OV-3; assay: Anticancer activity against human SK-OV-3 cells assessed as cell growth inhibition incubated for 72 hrs by MTT assay; assay type: functional
[17] = Cytotoxicity against mitogen activated human peripheral blood lymphocytes assessed as cell growth inhibition incubated for 24 hrs by MTT assay; assay type: toxicity, cell-based, Lymphocyte
[18] = test system: MCF7; assay: Anticancer activity against human MCF7 cells assessed as cell growth inhibition incubated for 72 hrs by MTT assay; assay type: functional
[19] = Cytotoxicity against human HaCaT cells assessed as cell growth inhibition incubated for 72 hrs by MTT assay; assay type: toxicity, cell-based
[20] = test system: Jurkat; assay: Induction of morphological changes in human Jurkat cells assessed as chromatin topology incubated for 24 hrs by Hoechst 33258 and propidium iodide staining based fluorescence microscopy; assay type: functional, cell-based
[21] = test system: Lymphocyte; assay: Induction of DNA damage in mitogen activated human peripheral blood lymphocytes assessed as tail DNA at 0.5 uM incubated for 24 hrs by alkaline Comet assay; assay type: toxicity, cell-based
[22] = test system: MDA-MB-231; assay: Anticancer activity against human MDA-MB-231 cells assessed as cell growth inhibition incubated for 72 hrs by MTT assay; assay type: functional
[23] = test system: HeLa; assay: Anticancer activity against human HeLa cells assessed as cell growth inhibition incubated for 72 hrs by MTT assay; assay type: functional
[24] = test system: Jurkat; assay: Induction of DNA damage in human Jurkat cells assessed as olive tail moment at 0.5 uM incubated for 24 hrs by alkaline Comet assay; assay type: functional
[25] = test system: Jurkat; assay: Induction of morphological changes in human Jurkat cells assessed as chromatin fragmentation incubated for 24 hrs by Hoechst 33258 and propidium iodide staining based fluorescence microscopy; assay type: functional, cell-based
[26] = Cytotoxicity against mitogen activated human peripheral blood lymphocytes assessed as cell growth inhibition incubated for 48 hrs by MTT assay; assay type: toxicity, cell-based, Lymphocyte
[27] = test system: Jurkat; assay: Induction of apoptosis in human Jurkat cells assessed as increase in cleaved capase-3 level at 0.5 uM for 24 hrs by Western blot analysis; assay type: functional, cell-based
[28] = test system: Jurkat; assay: Induction of morphological changes in human Jurkat cells assessed as change in cell shape incubated for 24 hrs by Hoechst 33258 and propidium iodide staining based fluorescence microscopy; assay type: functional
[29] = test system: Jurkat; assay: Anticancer activity against human Jurkat cells assessed as cell growth inhibition incubated for 72 hrs by MTT assay; assay type: functional
[30] = test system: HCT-116; assay: Induction of DNA damage in human HCT-116 cells assessed as tail DNA at 0.5 uM incubated for 2 hrs by alkaline Comet assay; assay type: functional
[31] = test system: HCT-116; assay: Induction of DNA damage in human HCT-116 cells assessed as olive tail moment at 0.5 uM incubated for 2 hrs by alkaline Comet assay; assay type: functional
[32] = test system: HCT-116; assay: Induction of DNA damage in human HCT-116 cell lysate assessed as olive tail moment at 0.5 uM incubated for 2 hrs in dark by Comet assay; assay type: functional

Structure (SMILES): COc1cccc2c1C(=O)c1c(O)c3c(c(O)c1C2=O)C[C@@](O)(C(=O)CO)C[C@@H]3O[C@H]1C[C@H](N)[C@H](O)[C@H](C)O1 [DOXORUBICIN]
- Activity [1]: 40.9%
- Activity [2]: 68.7%
- Activity [3]: 8.12%
- GI50 [4]: 970 nM
- Activity [5]: Active
- Activity [6]: 12.6%
- Activity [7]: Active
- Activity [8]: Active
- GI50 [9]: 570 nM
- Activity [10]: Active
- GI50 [11]: 890 nM
- GI50 [12]: 2800 nM
- Activity [13]: Active
- GI50 [14]: 980 nM
- Activity [15]: Active
- GI50 [16]: 9100 nM
- GI50 at 24 h [17]: 2900 nM
- GI50 [18]: 750 nM
- GI50 at 72 h [19]: 640 nM
- Activity [20]: Active
- Activity [21]: 25.9%
- GI50 [22]: 5950 nM
- GI50 [23]: 700 nM
- Activity [24]: 12.23%
- Activity [25]: Active
- GI50 at 48 h [26]: 500 nM
- Activity [27]: Active
- Activity [28]: Active
- GI50 [29]: 430 nM
- Activity [30]: 18%
- Activity [31]: 1%
- Activity [32]: 1.95%

From ChEMBL document CHEMBL5113392, “Novel hybrid pyrrolidinedione-thiazolidinones as potential anticancer agents: Synthesis and biological evaluation” (Eur J Med Chem, 2022)
